These compounds were tested against human recombinant H-PGDS (Homo sapiens, UniProt O60760) (assay: Fluorescence intensity h-PGDS TBA enzyme assay). Conditions: Examples up to 622 (and 3a, 3b).
Type: biochemical

Chain of human recombinant H-PGDS (O60760 whole entry): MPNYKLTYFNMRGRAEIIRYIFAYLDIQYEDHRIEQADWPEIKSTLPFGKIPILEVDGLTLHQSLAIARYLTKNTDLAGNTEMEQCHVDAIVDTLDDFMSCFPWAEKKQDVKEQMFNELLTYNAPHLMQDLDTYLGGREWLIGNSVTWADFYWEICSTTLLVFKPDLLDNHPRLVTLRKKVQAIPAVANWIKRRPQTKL

`O=C(NC1CCN(Cc2ccno2)CC1)c1ccc(-c2cccc(F)c2)nc1` [Example 359, 6-(3-Fluorophenyl)-N-[1-(isoxazol-5-ylmethyl)piperidin-4-yl]nicotinamide] and `O=C(NC1CCN(Cc2ccon2)CC1)c1ccc(-c2cccc(F)c2)nc1` [Example 363, 6-(3-Fluorophenyl)-N-[1-(isoxazol-3-ylmethyl)piperidin-4-yl]nicotinamide] are within 1.5-fold of each other in IC50: 0.443 nM for the first, 0.299 nM for the second.

First: CCC(C)CCN1CCC(NC(=O)c2ccc(-c3cccc(F)c3)nc2)CC1 (stereo not shown) [Example 360, 6-(3-Fluorophenyl)-N-[1-(3-methylpentyl)piperidin-4-yl]nicotinamide]
Second: Cc1cc(CN2CCC(NC(=O)c3ccc(-c4cccc(F)c4)nc3)CC2)n(C)n1 [Example 372, N-{1-[(1,3-Dimethyl-1H-pyrazol-5-yl)methyl]piperidin-4-yl}-6-(3-fluorophenyl)nicotinamide]
The IC50 of the first is 2.8-fold higher: 2.76 nM for the first, 0.981 nM for the second. The second is the more potent here.

`Cc1nn(C(C)C)c(C)c1CN1CCC(NC(=O)c2ccc(-c3cccc(F)c3)nc2)CC1` [Example 361, 6-(3-Fluorophenyl)-N-{1-[(1-isopropyl-3,5-dimethyl-1H-pyrazol-4-yl)methyl]piperidin-4-yl}nicotinamide] and `Cc1nn(-c2ccc(F)cc2)c(C)c1CN1CCC(NC(=O)c2ccc(-c3cccc(F)c3)nc2)CC1` [Example 362, 6-(3-Fluorophenyl)-N-(1-{[1-(4-fluorophenyl)-3,5-dimethyl-1H-pyrazol-4-yl]methyl}piperidin-4-yl)nicotinamide] are within 1.5-fold of each other in IC50: 1.35 nM for the first, 1.05 nM for the second.

Going from `COc1ccc(CN2CCC(NC(=O)c3ccc(-c4cccc(F)c4)nc3)CC2)cc1CN(C)C` [Example 364, N-(1-{3-[(Dimethylamino)methyl]-4-methoxybenzyl}piperidin-4-yl)-6-(3-fluorophenyl)nicotinamide] to `O=C(NC1CCN(Cc2ccc(=O)[nH]c2)CC1)c1ccc(-c2cccc(F)c2)nc1` [Example 378, 6-(3-Fluorophenyl)-N-{1-[(6-oxo-16-dihydropyridin-3-yl)methyl]piperidin-4-yl}nicotinamide], the IC50 falls from 4.03 nM to 1.41 nM (2.9-fold).

Compared with `COc1ccc(-n2ccnc2CN2CCC(NC(=O)c3ccc(-c4cccc(F)c4)nc3)CC2)cc1` [Example 365, 6-(3-Fluorophenyl)-N-(1-{[1-(4-methoxyphenyl)-1H-imidazol-2-yl]methyl}piperidin-4-yl)nicotinamide], `Cn1ccnc1-c1ccc(CN2CCC(NC(=O)c3ccc(-c4cccc(F)c4)nc3)CC2)cc1` [Example 376, 6-(3-Fluorophenyl)-N-{1-[4-(1-methyl-1H-imidazol-2-yl)benzyl]piperidin-4-yl}nicotinamide] is 6.7-fold higher in IC50: 0.13 nM for the first, 0.876 nM for the second. The first is the more potent here.

`CC(C)c1cc(CN2CCC(NC(=O)c3ccc(-c4cccc(F)c4)nc3)CC2)n[nH]1` [Example 366] and `Cn1cnc(CN2CCC(NC(=O)c3ccc(-c4cccc(F)c4)nc3)CC2)c1` [Example 374, 6-(3-Fluorophenyl)-N-{1-[(1-methyl-1H-imidazol-4-yl)methyl]piperidin-4-yl}nicotinamide] are within 1.5-fold of each other in IC50: 2.42 nM for the first, 2.99 nM for the second.

`O=C(NC1CCN(Cc2cccc(-n3cccn3)c2)CC1)c1ccc(-c2cccc(F)c2)nc1` [Example 367, 6-(3-Fluorophenyl)-N-{1-[3-(1H-pyrazol-1-yl)benzyl]piperidin-4-yl}nicotinamide] and `O=C(NC1CCN(Cc2cccc(-n3cccn3)n2)CC1)c1ccc(-c2cccc(F)c2)nc1` [Example 375, 6-(3-Fluorophenyl)-N-(1-{[6-(1H-pyrazol-1-yl)pyridin-2-yl]methyl}piperidin-4-yl)nicotinamide] are within 1.5-fold of each other in IC50: 0.707 nM for the first, 0.667 nM for the second.

Going from `Nc1ncc(CN2CCC(NC(=O)c3ccc(-c4cccc(F)c4)nc3)CC2)cn1` [Example 368, N-{1-[(2-Aminopyrimidin-5-yl)methyl]piperidin-4-yl}-6-(3-fluorophenyl)nicotinamide] to `O=C(NC1CCN(Cc2ccn[nH]2)CC1)c1ccc(-c2cccc(F)c2)nc1` [Example 384, 6-(3-Fluorophenyl)-N-[1-(1H-pyrazol-5-ylmethyl)piperidin-4-yl]nicotinamide], the IC50 falls from 2.03 nM to 0.959 nM (2.1-fold). The second is the more potent here.

`Cc1cc(C)n(-c2cccc(CN3CCC(NC(=O)c4ccc(-c5cccc(F)c5)nc4)CC3)c2)n1` [Example 369, N-{1-[3-(3,5-Dimethyl-1H-pyrazol-1-yl)benzyl]piperidin-4-yl}-6-(3-fluorophenyl)nicotinamide] and `Cc1ccc(-c2cccc(CN3CCC(NC(=O)c4ccc(-c5cccc(F)c5)nc4)CC3)c2)c(N)n1` [Example 380, N-{1-[3-(2-Amino-6-methylpyridin-3-yl)benzyl]piperidin-4-yl}-6-(3-fluorophenyl)nicotinamide] are within 1.5-fold of each other in IC50: 1.36 nM for the first, 1.25 nM for the second.

`O=C(NC1CCN(Cc2cc(F)cc3c2OCOC3)CC1)c1ccc(-c2cccc(F)c2)nc1` [Example 370, N-{1-[(6-Fluoro-4H-1,3-benzodioxin-8-yl)methyl]piperidin-4-yl}-6-(3-fluorophenyl)nicotinamide] and `O=C(NC1CCN(Cc2cccc3nsnc23)CC1)c1ccc(-c2cccc(F)c2)nc1` [Example 371, N-[1-(2,1,3-Benzothiadiazol-4-ylmethyl)piperidin-4-yl]-6-(3-fluorophenyl)nicotinamide] are within 1.5-fold of each other in IC50: 0.456 nM for the first, 0.438 nM for the second.

Compared with `O=C(NC1CCN(Cc2csc(-c3ccccc3)n2)CC1)c1ccc(-c2cccc(F)c2)nc1` [Example 373, 6-(3-Fluorophenyl)-N-{1-[(2-phenyl-1,3-thiazol-4-yl)methyl]piperidin-4-yl}nicotinamide], `O=C(NC1CCN(Cc2cccc(-c3cncnc3)c2)CC1)c1ccc(-c2cccc(F)c2)nc1` [Example 381, 6-(3-Fluorophenyl)-N-[1-(3-pyrimidin-5-ylbenzyl)piperidin-4-yl]nicotinamide] is 28-fold lower in IC50: 2.36 nM for the first, 0.0854 nM for the second.

First: O=C(NC1CCN(Cc2cccn3c(Br)cnc23)CC1)c1ccc(-c2cccc(F)c2)nc1 [Example 377, N-{1-[(3-Bromoimidazo[1,2-a]pyridin-8-yl)methyl]piperidin-4-yl}-6-(3-fluorophenyl)nicotinamide]
Second: Cc1ccn2c(CN3CCC(NC(=O)c4ccc(-c5cccc(F)c5)nc4)CC3)c(C)nc2c1 [Example 383, N-{1-[(2,7-Dimethylimidazo[1,2,a]pyridin-3-yl)methyl]piperidin-4-yl}-6-(3-fluorophenyl)nicotinamide]
The IC50 of the first is 2.5-fold lower: 0.491 nM for the first, 1.25 nM for the second.

Compared with `CCOC(=O)c1cn2c(CN3CCC(NC(=O)c4ccc(-c5cccc(F)c5)nc4)CC3)cccc2n1` [Example 379, Ethyl 5-{[4-({[6-(3-fluorophenyl)pyridin-3-yl]carbonyl}amino)piperidin-1-yl]methyl}imidazo[1,2-a]pyridine-2-carboxylate], `O=C(NC1CCN(Cc2cn[nH]c2-c2ccccc2Cl)CC1)c1ccc(-c2cccc(F)c2)nc1` [Example 382, N-(1-{[5-(2-Chlorophenyl)-1H-pyrazol-4-yl]methyl}piperidin-4-yl)-6-(3-fluorophenyl)nicotinamide] is 2.1-fold lower in IC50: 1.43 nM for the first, 0.681 nM for the second. The second is the more potent here.

Compared with `N#CC1(c2ccc(CN3CCC(NC(=O)c4ccc(-c5cccc(F)c5)nc4)CC3)cc2)CC=CC1` [Example 385, N-{1-[4-(1-Cyanocyclopent-3-en-1-yl)benzyl]piperidin-4-yl}-6-(3-fluorophenyl)nicotinamide], `O=C(NC1CCN(Cc2cnn3c2CCCC3)CC1)c1ccc(-c2cccc(F)c2)nc1` [Example 386, 6-(3-Fluorophenyl)-N-[1-(4,5,6,7-tetrahydropyrazolo[1,5-a]pyridin-3-ylmethyl)piperidin-4-yl]nicotinamide] is 9.8-fold lower in IC50: 11.7 nM for the first, 1.2 nM for the second.
